This note sets out measurements from patent US8022205B2, “Pyrimidine derivatives as PI3K inhibitor and use thereof” (Chugai Seiyaku Kabushiki Kaisha, priority 2006, dated 2011).

The test system of assay [1] is human prostate cancer cell line PC3. Kind of assay: Cell proliferation inhibitory activity (Cell Counting Kit-8), prostate cancer PC3. The assay is classed as cell-based. As to conditions: 96 h, PC3, 4 days. The protocol:
(§1) The cell proliferation inhibitory activity was measured for compounds of the present invention represented by formula (I). Cancer cell proliferation inhibitory activity was measured using the Cell Counting Kit-8 (Dojindo). 2000 cells each of human colon cancer cell line HCT116 purchased from the American Type Culture Collection (Virginia, USA) were seeded into each well of a 96-well culture plate followed by the addition of a predetermined concentration of the compounds and cultivating in a CO2environment for 4 days at 37° C. On the fourth day of cultivating, the Cell Counting Kit-8 solution was added and absorbance (measuring wavelength: 450 nm, reference wavelength: 615 nm) was measured in accordance with the protocol provided with the kit.
(§2) Cancer cell proliferation inhibitory activity was also measured for human lung cancer cell line NCI-H460 and human prostate cancer cell line PC3 purchased from the American Type Culture Collection. 1000 and 3000 cells of NCI-H460 and PC3, respectively, were seeded into each well of a 96-well culture plate followed by testing in the same manner as the human colon cancer cell line and calculating the percentage of cell proliferation inhibition at 2.5 μM.

In assay [2] the test system is human colon cancer cell line HCT116. Kind of assay: Cell proliferation inhibitory activity (Cell Counting Kit-8), colon cancer HCT116. Type of assay: cell-based. Conditions: HCT-116, 96 h, HCT116, 4 days. The protocol: as §1
(In general: Tetrazolium assays rely on reduction of a dye to a coloured formazan, in cell work by metabolically active cells.)

Assay [3] has as its target human PI3K(p110α/p85α) (Homo sapiens, UniProt P42336). Kind of assay: Measurement of PI3K inhibitory activity (AlphaScreen GST Detection Kit). As to conditions: 10 μM ATP, 4 μM PI(4,5)P2, read-out: Enzyme inhibitory activity (IC50, μM) PI3K α. The assay is classed as biochemical. The protocol: The inhibitory activity of compounds of the present invention represented by formula (I) were measured with human PI3K(p110α/p85α) prepared in a baculovirus expression system using the AlphaScreen GST Detection Kit (Perkin Elmer, Inc.). A predetermined concentration of the compound dissolved in dimethylsulfoxide (DMSO) and PI3K were mixed in a 384-well assay plate and after allowing to stand for 20 minutes at room temperature, 4 μM PI(4,5)P2 (Echelon Corporation) and 10 μM ATP (5 mM Hepes, pH 7.5, 2.5 mM MgCl2) were added to initiate the reaction. After reacting for 15 minutes at 37° C., GST-GRP1 expressed and purified from Escherichia coli, Anti-GST Acceptor Beads (Perkin Elmer, Inc.), Streptavidin Donor Beads (Perkin Elmer, Inc.) and biotin-PI(3,4,5) P3 (Echelon Corporation) (10 mM Tris-HCl pH 7.4, 150 mM NaCl, 7.5 mM EDTA, 1 mM DTT, 0.1% Tween 20) were added, and after allowing to stand for 1 hour at room temperature, light at 520 to 620 nm emitted as a result of exciting with light at 680 nm was measured with the Envision measuring instrument (Perkin Elmer, Inc.).
Test Example 1 described above can be performed according to “Analytical Biochemistry, 2003, 313, 234-245; Alexander Gray et al”.
(In general: Bead proximity is the source of the signal in Alpha formats.)

The subject of assay [4] is human lung cancer cell line NCI-H460. In words: Cell proliferation inhibitory activity (Cell Counting Kit-8), lung cancer NCI-H460. The assay is classed as cell-based. As to conditions: 96 h, NCI-H460, 4 days, read-out: Cell proliferation inhibitory activity (% Inhibition at 2.5 μM) Non-small cell lung cancer (NCI-H460). Here is the method: as §1, §2

Chain of human PI3K(p110α/p85α) (P42336 whole entry): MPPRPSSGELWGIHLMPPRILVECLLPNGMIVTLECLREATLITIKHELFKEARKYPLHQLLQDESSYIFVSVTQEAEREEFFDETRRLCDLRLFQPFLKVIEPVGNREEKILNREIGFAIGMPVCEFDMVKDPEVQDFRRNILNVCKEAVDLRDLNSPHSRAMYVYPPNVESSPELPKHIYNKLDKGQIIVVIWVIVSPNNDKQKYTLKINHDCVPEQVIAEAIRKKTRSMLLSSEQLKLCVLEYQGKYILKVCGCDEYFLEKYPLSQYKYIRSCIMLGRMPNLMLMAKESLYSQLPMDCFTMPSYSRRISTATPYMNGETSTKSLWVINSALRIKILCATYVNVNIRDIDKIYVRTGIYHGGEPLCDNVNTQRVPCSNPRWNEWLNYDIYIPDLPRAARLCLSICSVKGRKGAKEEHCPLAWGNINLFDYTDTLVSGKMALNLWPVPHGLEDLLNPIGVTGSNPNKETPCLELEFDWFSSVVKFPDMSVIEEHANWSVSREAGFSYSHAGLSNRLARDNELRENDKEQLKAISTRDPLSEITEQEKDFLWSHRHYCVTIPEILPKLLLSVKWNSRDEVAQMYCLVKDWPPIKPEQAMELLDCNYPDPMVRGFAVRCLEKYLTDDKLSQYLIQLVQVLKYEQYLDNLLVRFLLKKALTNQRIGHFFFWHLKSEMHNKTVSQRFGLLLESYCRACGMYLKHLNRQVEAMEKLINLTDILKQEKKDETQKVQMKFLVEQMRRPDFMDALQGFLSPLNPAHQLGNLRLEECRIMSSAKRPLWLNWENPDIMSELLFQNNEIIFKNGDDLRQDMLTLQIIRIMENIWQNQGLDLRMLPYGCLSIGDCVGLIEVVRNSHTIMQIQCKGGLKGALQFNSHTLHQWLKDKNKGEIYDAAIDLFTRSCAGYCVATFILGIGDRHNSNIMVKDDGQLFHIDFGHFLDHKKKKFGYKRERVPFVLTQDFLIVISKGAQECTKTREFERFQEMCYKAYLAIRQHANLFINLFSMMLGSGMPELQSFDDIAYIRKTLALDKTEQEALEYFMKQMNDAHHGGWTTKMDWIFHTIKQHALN
Chain of human PI3K(p110α/p85α) (P27986 whole entry partner): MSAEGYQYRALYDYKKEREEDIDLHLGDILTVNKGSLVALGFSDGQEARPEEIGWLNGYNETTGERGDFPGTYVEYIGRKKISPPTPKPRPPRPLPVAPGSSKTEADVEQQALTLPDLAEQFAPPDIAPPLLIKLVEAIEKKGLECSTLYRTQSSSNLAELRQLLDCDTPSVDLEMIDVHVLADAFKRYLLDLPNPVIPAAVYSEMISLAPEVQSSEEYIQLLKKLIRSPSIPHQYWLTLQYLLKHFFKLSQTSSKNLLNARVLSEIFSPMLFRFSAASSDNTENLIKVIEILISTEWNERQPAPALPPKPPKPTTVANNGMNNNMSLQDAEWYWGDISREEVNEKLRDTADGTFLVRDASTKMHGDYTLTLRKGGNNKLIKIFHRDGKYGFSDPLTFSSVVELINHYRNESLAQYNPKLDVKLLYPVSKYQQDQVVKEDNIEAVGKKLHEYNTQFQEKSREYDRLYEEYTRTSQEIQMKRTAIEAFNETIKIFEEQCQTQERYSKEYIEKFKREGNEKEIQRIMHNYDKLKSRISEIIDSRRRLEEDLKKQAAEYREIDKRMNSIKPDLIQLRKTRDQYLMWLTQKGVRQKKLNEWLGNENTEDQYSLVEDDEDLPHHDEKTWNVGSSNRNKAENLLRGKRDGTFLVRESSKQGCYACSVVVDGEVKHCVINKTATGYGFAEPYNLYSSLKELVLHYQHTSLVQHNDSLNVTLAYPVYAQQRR

Turning to `Nc1ncc(-c2nc(N3CCOCC3)nc3c2CCN3C(=O)Nc2ccc(C(=O)N3CCOCC3)cc2)cn1` [Example D-104, 4-(2-Amino-pyrimidin-5-yl)-2-morpholin-4-yl-5,6-dihydro-pyrrolo[2,3-d]pyrimidine-7-carboxylic acid [4-(morpholine-4-carbonyl)-phenyl]-amide], the values for the inhibition at 2.5 µM in assay [1], in assay [2] and in assay [4] were 34%, 37% and 67%, respectively. The IC50 in assay [3] was determined as 0.006 µM.
On the same counts, the results for `Nc1ncc(-c2nc(N3CCOCC3)nc3c2CCN3C(=O)Nc2ccc(NCCN3CCOCC3)cc2)cn1` [Example D-108, 4-(2-Amino-pyrimidin-5-yl)-2-morpholin-4-yl-5,6-dihydro-pyrrolo[2,3-d]pyrimidine-7-carboxylic acid [4-(2-morpholin-4-yl-ethylamino)-phenyl]-amide] are 90%, 92%, 95% and 0.007 µM.
For `Nc1ncc(-c2nc(N3CCOCC3)nc3c2CCN3c2ccc(C(=O)N3CCNCC3)nc2)cn1` [Example D-128, {5-[4-(2-Amino-pyrimidin-5-yl)-2-morpholin-4-yl-5,6-dihydro-pyrrolo[2,3-d]pyrimidin-7-yl]-pyridin-2-yl}-piperazin-1-yl-methanone] the same measures were 60%, 81%, 95% and 0.008 µM.
On the same counts, the results for `Cc1cc(C(=O)N2CCOCC2)ccc1N1CCc2c(-c3cnc(N)nc3)nc(N3CCOCC3)nc21` [Example D-137, {4-[4-(2-Amino-pyrimidin-5-yl)-2-morpholin-4-yl-5,6-dihydro-pyrrolo[2,3-d]pyrimidin-7-yl]-3-methyl-phenyl}-morpholin-4-yl-methanone] are 71%, 60%, 52% and 0.092 µM.
On to `CCN1CCN(C(=O)c2ccc(N3CCc4c(-c5cnc(N)nc5)nc(N5CCOCC5)nc43)c(F)c2)CC1` [Example D-138, {4-[4-(2-Amino-pyrimidin-5-yl)-2-morpholin-4-yl-5,6-dihydro-pyrrolo[2,3-d]pyrimidin-7-yl]-3-fluoro-phenyl}-(4-ethyl-piperazin-1-yl)-methanone], for which the inhibition at 2.5 µM in assay [1] worked out at 85%; in assay [2], 82%; in assay [4], 86%. Besides, the IC50 in assay [3] worked out at 0.11 µM.
For `CN(CCN1CCOCC1)C(=O)c1ccc(N2CCc3c(-c4cnc(N)nc4)nc(N4CCOCC4)nc32)cc1` [Example D-139, 4-[4-(2-Amino-pyrimidin-5-yl)-2-morpholin-4-yl-5,6-dihydro-pyrrolo[2,3-d]pyrimidin-7-yl]-N-methyl-N-(2-morpholin-4-yl-ethyl)-benzamide] the same measures were 89%, 90%, 72% and 0.009 µM.
For `Nc1ncc(-c2nc(N3CCOCC3)nc3c2CCN3c2ccc(CC(=O)N3CCNCC3)cc2)cn1` [Example D-172, 2-{4-[4-(2-Amino-pyrimidin-5-yl)-2-morpholin-4-yl-5,6-dihydro-pyrrolo[2,3-d]pyrimidin-7-yl]-phenyl}-1-piperazin-1-yl-ethanone] the same measures were 86%, 86%, 79% and 0.008 µM.
For `Cc1ccc(C(=O)N2CCN(C)CC2)cc1NC(=O)N1CCc2c(-c3cnc(N)nc3)nc(N3CCOCC3)nc21` [Example D-223, 4-(2-Amino-pyrimidin-5-yl)-2-morpholin-4-yl-5,6-dihydro-pyrrolo[2,3-d]pyrimidine-7-carboxylic acid [2-methyl-5-(4-methyl-piperazine-1-carbonyl)-phenyl]-amide] the same measures were 95%, 95%, 92% and 0.007 µM.

What is called IC50 is the concentration that gives 50% inhibition.
